Assay results reported in PMC9322451 (Clinical Pharmacology in Drug Development, 2022).

Experiments:
[1] = Phase 1 part B: safety (TEAEs); type: in vivo, human; details: for Any TEAE / Serious TEAE / Severe TEAE / TEAE leading to death / TEAE leading to discontinuation / Abdominal pain upper (TEAE by preferred term) / Decreased appetite (TEAE by preferred term) / Dry skin (TEAE by preferred term) / Headache (TEAE by preferred term) / Skin exfoliation (TEAE by preferred term) / Skin lesion (TEAE by preferred term): Part B, 40 mg; for participants reporting skin exfoliation / participants who experienced a TEAE / number of TEAEs reported: part B
Method: Participants were admitted to the clinical unit the day before doses were administered on days 1 and 8 and discharged on days 2 and 9, after collection of the 36‐hour postdose PK sample. The washout period between doses was 7 days. […] After dosing, participants were required to remain upright for at least 2 hours and refrain from food and drink for at least 4 hours; water was allowed after 2 hours.
Safety was assessed from the signing of informed consent until the end of study and included the following variables: treatment‐emergent adverse events (TEAEs), serious adverse events (SAEs), clinical laboratory tests (clinical chemistry, hematology, coagulation [part A only], and urinalysis), vital signs, 12‐lead ECG, primary Holter monitoring, and physical examinations (including evaluation of teeth and gingiva, and evaluation of palms and soles). Because of the mechanism of action of brensocatib, findings of hyperkeratosis, periodontitis/gingivitis, and other infections were reported as adverse events of special interest (AESIs). Renal function (part A only) was monitored by measuring serum creatinine and blood urea nitrogen, performing routine urinalysis, and measuring neutrophil gelatinase–associated lipocalin and cystatin.
Adverse events (AEs) observed before the first dosing were recorded as medical history. All medical history and AEs were coded using the Medical Dictionary for Regulatory Activities (version 21.1 or higher). A TEAE was defined as an AE that began or worsened in severity after at least 1 dose of study drug was administered. All AEs experienced by a participant were monitored until the event had resolved, any abnormal laboratory values returned to baseline or stabilized, a satisfactory explanation for the changes was identified, or the participant was lost to follow‐up.

[2] = design: method as in unpublished data; details: ref unpublished data; cited from earlier work
CYP2B6 = system: CYP2B6; design: method as in unpublished data; details: ref unpublished data; cited from earlier work
neutrophil elastase = details: 10 and 25 mg, patients with non–cystic fibrosis bronchiectasis, WILLOW study; cited from earlier work

Structure (SMILES): Cn1c(=O)oc2ccc(-c3ccc(C[C@@H](C#N)NC(=O)[C@@H]4CNCCCO4)cc3)cc21 [Brensocatib]
- Any TEAE ([1]; Japanese, Fasted (n=5)): 0 n (%)
- Serious TEAE ([1]; Japanese, Fasted (n=5)): 0 n (%)
- Severe TEAE ([1]; Japanese, Fasted (n=5)): 0 n (%)
- TEAE leading to death ([1]; Japanese, Fasted (n=5)): 0 n (%)
- TEAE leading to discontinuation ([1]; Japanese, Fasted (n=5)): 0 n (%)
- Abdominal pain upper (TEAE by preferred term) ([1]; Japanese, Fasted (n=10)): 0 n (%)
- Decreased appetite (TEAE by preferred term) ([1]; Japanese, Fasted (n=10)): 0 n (%)
- Dry skin (TEAE by preferred term) ([1]; Japanese, Fasted (n=10)): 0 n (%)
- Headache (TEAE by preferred term) ([1]; Japanese, Fasted (n=10)): 0 n (%)
- Skin exfoliation (TEAE by preferred term) ([1]; Japanese, Fasted (n=10)): 0 n (%)
- Skin lesion (TEAE by preferred term) ([1]; Japanese, Fasted (n=10)): 0 n (%)
- Any TEAE ([1]; Japanese, Fed (n=5)): 3 (60.0) n (%)
- Serious TEAE ([1]; Japanese, Fed (n=5)): 0 n (%)
- Severe TEAE ([1]; Japanese, Fed (n=5)): 0 n (%)
- TEAE leading to death ([1]; Japanese, Fed (n=5)): 0 n (%)
- TEAE leading to discontinuation ([1]; Japanese, Fed (n=5)): 0 n (%)
- Abdominal pain upper (TEAE by preferred term) ([1]; Japanese, Fed (n=9)): 1 (11.1) n (%)
- Decreased appetite (TEAE by preferred term) ([1]; Japanese, Fed (n=9)): 1 (11.1) n (%)
- Dry skin (TEAE by preferred term) ([1]; Japanese, Fed (n=9)): 0 n (%)
- Headache (TEAE by preferred term) ([1]; Japanese, Fed (n=9)): 1 (11.1) n (%)
- Skin exfoliation (TEAE by preferred term) ([1]; Japanese, Fed (n=9)): 1 (11.1) n (%)
- Skin lesion (TEAE by preferred term) ([1]; Japanese, Fed (n=9)): 0 n (%)
- Abdominal pain upper (TEAE by preferred term) ([1]; Japanese, Total (N=10)): 1 (10.0) n (%)
- Any TEAE ([1]; Japanese, Total (N=10)): 3 (30.0) n (%)
- Decreased appetite (TEAE by preferred term) ([1]; Japanese, Total (N=10)): 1 (10.0) n (%)
- Dry skin (TEAE by preferred term) ([1]; Japanese, Total (N=10)): 0 n (%)
- Headache (TEAE by preferred term) ([1]; Japanese, Total (N=10)): 1 (10.0) n (%)
- Serious TEAE ([1]; Japanese, Total (N=10)): 0 n (%)
- Severe TEAE ([1]; Japanese, Total (N=10)): 0 n (%)
- Skin exfoliation (TEAE by preferred term) ([1]; Japanese, Total (N=10)): 1 (10.0) n (%)
- Skin lesion (TEAE by preferred term) ([1]; Japanese, Total (N=10)): 0 n (%)
- TEAE leading to death ([1]; Japanese, Total (N=10)): 0 n (%)
- TEAE leading to discontinuation ([1]; Japanese, Total (N=10)): 0 n (%)
- Any TEAE ([1]; White, Fasted (n=5)): 1 (20.0) n (%)
- Serious TEAE ([1]; White, Fasted (n=5)): 0 n (%)
- Severe TEAE ([1]; White, Fasted (n=5)): 0 n (%)
- TEAE leading to death ([1]; White, Fasted (n=5)): 0 n (%)
- TEAE leading to discontinuation ([1]; White, Fasted (n=5)): 0 n (%)
- Abdominal pain upper (TEAE by preferred term) ([1]; White, Fasted (n=10)): 0 n (%)
- Decreased appetite (TEAE by preferred term) ([1]; White, Fasted (n=10)): 0 n (%)
- Dry skin (TEAE by preferred term) ([1]; White, Fasted (n=10)): 0 n (%)
- Headache (TEAE by preferred term) ([1]; White, Fasted (n=10)): 0 n (%)
- Skin exfoliation (TEAE by preferred term) ([1]; White, Fasted (n=10)): 0 n (%)
- Skin lesion (TEAE by preferred term) ([1]; White, Fasted (n=10)): 1 (10.0) n (%)
- Any TEAE ([1]; White, Fed (n=5)): 2 (40.0) n (%)
- Serious TEAE ([1]; White, Fed (n=5)): 0 n (%)
- Severe TEAE ([1]; White, Fed (n=5)): 0 n (%)
- TEAE leading to death ([1]; White, Fed (n=5)): 0 n (%)
- TEAE leading to discontinuation ([1]; White, Fed (n=5)): 0 n (%)
- Abdominal pain upper (TEAE by preferred term) ([1]; White, Fed (n=10)): 0 n (%)
- Decreased appetite (TEAE by preferred term) ([1]; White, Fed (n=10)): 0 n (%)
- Dry skin (TEAE by preferred term) ([1]; White, Fed (n=10)): 1 (10.0) n (%)
- Headache (TEAE by preferred term) ([1]; White, Fed (n=10)): 0 n (%)
- Skin exfoliation (TEAE by preferred term) ([1]; White, Fed (n=10)): 1 (10.0) n (%)
- Skin lesion (TEAE by preferred term) ([1]; White, Fed (n=10)): 0 n (%)
- Abdominal pain upper (TEAE by preferred term) ([1]; White, Total (N=10)): 0 n (%)
- Any TEAE ([1]; White, Total (N=10)): 3 (30.0) n (%)
- Decreased appetite (TEAE by preferred term) ([1]; White, Total (N=10)): 0 n (%)
- Dry skin (TEAE by preferred term) ([1]; White, Total (N=10)): 1 (10.0) n (%)
- Headache (TEAE by preferred term) ([1]; White, Total (N=10)): 0 n (%)
- Serious TEAE ([1]; White, Total (N=10)): 0 n (%)
- Severe TEAE ([1]; White, Total (N=10)): 0 n (%)
- Skin exfoliation (TEAE by preferred term) ([1]; White, Total (N=10)): 1 (10.0) n (%)
- Skin lesion (TEAE by preferred term) ([1]; White, Total (N=10)): 1 (10.0) n (%)
- TEAE leading to death ([1]; White, Total (N=10)): 0 n (%)
- TEAE leading to discontinuation ([1]; White, Total (N=10)): 0 n (%)
- participants reporting skin exfoliation ([1]; Japanese): 10.0%
- participants who experienced a TEAE ([1]; Japanese): 30.0%
- number of TEAEs reported ([1]; Japanese, fasted conditions): none
- number of TEAEs reported ([1]; Japanese, fed conditions): 4
- participants reporting skin exfoliation ([1]; White): 10.0%
- participants who experienced a TEAE ([1]; White): 30.0%
- number of TEAEs reported ([1]; White, fasted conditions): 1
- number of TEAEs reported ([1]; White, fed conditions): 2
- degradation in human intestinal microsomes and hepatocytes [2]: minimal degradation
- CYP induction (significant inducer or not) (CYP2B6): not a significant
- effect on neutrophil elastase and clinical outcomes (neutrophil elastase): reduced neutrophil elastase and improved clinical outcomes
